Results as given in patent US20050164234A1, “Methods of using mammalian RNase H and compositions thereof” (priority 1997, published 2005).
Strand notation (5' to 3'): a small letter for the sugar, then the base; units joined by * are phosphorothioate-linked, units joined directly phosphodiester-linked; [ ] holds rarer units or linkages, { } end groups; capitals alone tell only the bases. e = 2'-O-(2-methoxyethyl) (MOE); [5mC] = 5-methylcytosine; d = 2'-deoxy (DNA)

Key:
human RNase H2 [1] = assay: Screen of antisense compounds (gapped oligonucleotides, siRNA) in cells against human RNase H2; assay type: cell-based; parameters: concentration or dose not given beside the values; conditions: percent inhibition of RNase H enzyme levels; target H2
Method: Oligonucleotides were identified by screening in cells (Crooke, S. T., 2003, in Burger's Medicinal Chemistry, 6th ed., pp 115-166; Vickers et al., 2003, J. Biol. Chem. 278, 7108-7118).
For this experiment oligoribonucleotides were purchased from Dharmacon Research, Inc. (Boulder Colo.). siRNA duplexes were formed in the solution containing 20 μM each oligoribonucleotide (sense strand shown and antisense strand complement—generally with a one base overhang at each end), 100 mM potassium acetate, 30 mM HEPES-KOH pH 7.4, 2 mM magnesium acetates. Reactions were heated for 1 minute at 90° C. and incubated for 1 hour at 37° C. The control gapped antisense oligonucleotide, is ISIS 29848, […] (SEQ ID NO: 104), where N is a mixture of A, G, C and T. Bold residues are 2′-MOE residues. The siRNA controls are either the single strand sense RNA strand or other RNA duplexes that are not complementary to the target. For transfection of cells, cells were incubated with a mixture of 3 μg/ml lipofectin (Invitrogen, Carlsbad Calif.) per 1-200 nM oligonucleotide or siRNA in OptiMEM medium (Invitrogen). After 4 hours the transfection mixture was aspirated from the cells and replaced with fresh medium containing 10% fetal bovine serum and the cells were incubated at 37° C. in 5% CO2 until harvest or second transfection.

human RNase H2 [2] = assay: Antisense inhibition of human RNase H2 expression, Northern blot; assay type: cell-based; parameters: % of control / % inhibition: concentration or dose not given beside the values; conditions: for % inhibition / % of control: RNase H2 expression, Northern blot; for inhibition of human RNase H2 expression: summary of Table 3; for reduction of expression: dose response, A549 cells
Method: Total RNA was isolated from different human cell lines (ATCC, Rockville, Md.) using the guanidine isothiocyanate method (21). Ten μg of total RNA was separated on a 1.2% agarose/formaldehyde gel and transferred to Hybond-N+ (Amersham, Arlington Heights, Ill.) followed by fixing using UV crosslinker (Strategene, La Jolla, Calif.). The premade multiple tissue Northern Blot membranes were also purchased from Clontech (Palo Alto, Calif.). To detect RNase H2 mRNA, hybridization was performed by using ^32P-labeled human RNase H II cDNA in Quik-Hyb buffer (Strategene, La Jolla, Calif.) at 68 EC for 2 hours. After hybridization, membranes were washed in a final stringency of 0.1×SSC/0.1% SDS at 60 EC for 30 minutes and subjected to auto-radiography.
A series of antisense oligonucleotides were targeted to the human RNase H2 polynucleotide sequence (SEQ ID NO: 11). These compounds were all 2′-O-methoxyethyl “gapmers” with an 8-nucleotide deoxy gap and a phosphorothioate backbone. Cytosine residues are 5-methyl cytosines. The 2′-O-methoxyethyl (2′MOE) nucleotides are shown in bold.
The oligonucleotides shown in Table 2 were tested by Northern blot analysis for their ability to inhibit expression of human RNase H2. Results are expressed in Table 3.

“CCTCTTTCTCCAGGATGGTC (antisense e[5mC]*e[5mC]*eT*e[5mC]*eT*eT*dT*d[5mC]*dT*d[5mC]*d[5mC]*dA*dG*dG*eA*eT*eG*eG*eT*e[5mC]) [ISIS 21958, 2′-O-methoxyethyl gapmer, 8-nucleotide deoxy gap, phosphorothioate backbone, targeted to human RNase H2]” was tested, and the “% Inhib” value (human RNase H2 [1]) was 38.0%, the “% inhibition” value (human RNase H2 [2]) was 38% and the “% of control” value (human RNase H2 [2]) was 62%.

“CAGTTTCTCCACGAATTGCC (antisense e[5mC]*eA*eG*eT*eT*eT*d[5mC]*dT*d[5mC]*d[5mC]*dA*d[5mC]*dG*dA*eA*eT*eT*eG*e[5mC]*e[5mC]) [ISIS 21955, 2′-O-methoxyethyl gapmer, 8-nucleotide deoxy gap, phosphorothioate backbone, targeted to human RNase H2]” was tested, and the “% Inhib” value (human RNase H2 [1]) was 33.3%, the “% inhibition” value (human RNase H2 [2]) was 33% and the “% of control” value (human RNase H2 [2]) was 67%.

For GACCAUCCUGGAGAAAGAGGC [Si 21958], the “% Inhib” value (human RNase H2 [1]) was 45.8%.

In the case of “CAAAAGGAAGTAGCTGGACC (antisense e[5mC]*eA*eA*eA*eA*eG*dG*dA*dA*dG*dT*dA*dG*d[5mC]*eT*eG*eG*eA*e[5mC]*e[5mC]) [ISIS 21962, 2′-O-methoxyethyl gapmer, 8-nucleotide deoxy gap, phosphorothioate backbone, targeted to human RNase H2]”, the “% Inhib” value (human RNase H2 [1]) is reported as 36.0%, the “% inhibition” value (human RNase H2 [2]) is reported as 37% and the “% of control” value (human RNase H2 [2]) is reported as 63%.

“GGACAATAACAGATGGCGTA (eG*eG*eA*e[5mC]*eA*eA*dT*dA*dA*d[5mC]*dA*dG*dA*dT*eG*eG*e[5mC]*eG*eT*eA) [ISIS 21948]” was tested, and the “% inhibition” value (human RNase H2 [2]) was 62%, the “% of control” value (human RNase H2 [2]) was 38% and the “inhibition of human RNase H2 expression” value (human RNase H2 [2]) was “at least 50%”.

“CGCCTCAGCCGCCACCACCA (all C 5-methyl, all phosphorothioate, sugars by position not given here; further chemistry not fully specified) [ISIS 21946, 2′-O-methoxyethyl gapmer, 8-nucleotide deoxy gap, phosphorothioate backbone, targeted to human RNase H2]” was tested, and the “% inhibition” value (human RNase H2 [2]) was 50%, the “% of control” value (human RNase H2 [2]) was 50% and the “inhibition of human RNase H2 expression” value (human RNase H2 [2]) was “at least 50%”.

With “TTTTGTCTTGGGATCATTGG (eT*eT*eT*eT*eG*eT*d[5mC]*dT*dT*dG*dG*dG*dA*dT*e[5mC]*eA*eT*eT*eG*eG) [ISIS 21956]” the “% Inhib” value (human RNase H2 [1]) was 63.1%, the “% inhibition” value (human RNase H2 [2]) was 63% and the “% of control” value (human RNase H2 [2]) was 37%. The “inhibition of human RNase H2 expression” value (human RNase H2 [2]) was “at least 50%”.

In the case of “CGCGCCTGGTATGTCTCTGG (all C 5-methyl, all phosphorothioate, sugars by position not given here; further chemistry not fully specified) [ISIS 21952, 2′-O-methoxyethyl gapmer, 8-nucleotide deoxy gap, phosphorothioate backbone, targeted to human RNase H2]”, the “% inhibition” value (human RNase H2 [2]) is reported as 89%, the “% of control” value (human RNase H2 [2]) is reported as 11% and the reduction of expression (human RNase H2 [2]; 200 nM) is reported as “approximately 70%”. For the same sequence, the reduction of expression (human RNase H2 [2]; lowest dose tested 50 nM) was 60% and the “inhibition of human RNase H2 expression” value (human RNase H2 [2]) was “at least 50%”.

In the case of GGUCCAGCUACUUCCUUUUGG [Si 21962], the “% Inhib” value (human RNase H2 [1]) is reported as 0%.

With “AGCTGAACCGGACAAACTGG (antisense eA*eG*e[5mC]*eT*eG*eA*dA*d[5mC]*d[5mC]*dG*dG*dA*d[5mC]*dA*eA*eA*e[5mC]*eT*eG*eG) [ISIS 21957, 2′-O-methoxyethyl gapmer, 8-nucleotide deoxy gap, phosphorothioate backbone, targeted to human RNase H2]” the “% Inhib” value (human RNase H2 [1]) was 68.1%, the “% inhibition” value (human RNase H2 [2]) was 68% and the “% of control” value (human RNase H2 [2]) was 32%. For the same sequence, the “inhibition of human RNase H2 expression” value (human RNase H2 [2]) was “at least 50%”.

“CCTACGTGTGGTTCTCCTTA (antisense e[5mC]*e[5mC]*eT*eA*e[5mC]*eG*dT*dG*dT*dG*dG*dT*dT*d[5mC]*eT*e[5mC]*e[5mC]*eT*eT*eA) [ISIS 21960, 2′-O-methoxyethyl gapmer, 8-nucleotide deoxy gap, phosphorothioate backbone, targeted to human RNase H2]” was tested, and the “% Inhib” value (human RNase H2 [1]) was 91.7%, the “% inhibition” value (human RNase H2 [2]) was 92% and the “% of control” value (human RNase H2 [2]) was 8%. For the same sequence, the reduction of expression (human RNase H2 [2]; 200 nM) was > 80%, the reduction of expression (human RNase H2 [2]; lowest dose tested 50 nM) was 60% and the “inhibition of human RNase H2 expression” value (human RNase H2 [2]) was “at least 50%”.

GAAGCAAGGUGGGAGUGUGCU [Si 21961] was tested, and the “% Inhib” value (human RNase H2 [1]) was 15.2%.

In the case of “CGGTGTCCACGAATACCTGG (all C 5-methyl, all phosphorothioate, sugars by position not given here; further chemistry not fully specified) [ISIS 21951, 2′-O-methoxyethyl gapmer, 8-nucleotide deoxy gap, phosphorothioate backbone, targeted to human RNase H2]”, the “% inhibition” value (human RNase H2 [2]) is reported as 74%, the “% of control” value (human RNase H2 [2]) is reported as 26% and the “inhibition of human RNase H2 expression” value (human RNase H2 [2]) is reported as “at least 50%”.

“CCACCTTGGCACAGATGCTG (all C 5-methyl, all phosphorothioate, sugars by position not given here; further chemistry not fully specified) [ISIS 21954, 2′-O-methoxyethyl gapmer, 8-nucleotide deoxy gap, phosphorothioate backbone, targeted to human RNase H2]” was tested, and the “% inhibition” value (human RNase H2 [2]) was 77%, the “% of control” value (human RNase H2 [2]) was 23% and the “inhibition of human RNase H2 expression” value (human RNase H2 [2]) was “at least 50%”.

With GGCAAUUCGUGGAGAAACUGC [Si 21955] the “% Inhib” value (human RNase H2 [1]) was 19.2%.

With CCUGGAACGCGGCCUGGAGUC [Si 21959] the “% Inhib” value (human RNase H2 [1]) was 53.8%.

For UAAGGAGAACCACACGUAGGG [Si 21960], the “% Inhib” value (human RNase H2 [1]) was 9.9%.

For “ACTCCAGGCCGCGTTCCAGG (antisense eA*e[5mC]*eT*e[5mC]*e[5mC]*eA*dG*dG*d[5mC]*d[5mC]*dG*d[5mC]*dG*dT*eT*e[5mC]*e[5mC]*eA*eG*eG) [ISIS 21959, 2′-O-methoxyethyl gapmer, 8-nucleotide deoxy gap, phosphorothioate backbone, targeted to human RNase H2]”, the “% Inhib” value (human RNase H2 [1]) was 81.2%, the “% inhibition” value (human RNase H2 [2]) was 82% and the “% of control” value (human RNase H2 [2]) was 18%. For the same sequence, the “inhibition of human RNase H2 expression” value (human RNase H2 [2]) was “at least 50%”.

With “CCCAGCCGACAAAGTCCGTG (all C 5-methyl, all phosphorothioate, sugars by position not given here; further chemistry not fully specified) [ISIS 21950, 2′-O-methoxyethyl gapmer, 8-nucleotide deoxy gap, phosphorothioate backbone, targeted to human RNase H2]” the “% inhibition” value (human RNase H2 [2]) was 68%, the “% of control” value (human RNase H2 [2]) was 32% and the “inhibition of human RNase H2 expression” value (human RNase H2 [2]) was “at least 50%”.

For “GCACACTCCCACCTTGCTTC (chemistry not fully specified) [ISIS 21961, 2′-O-methoxyethyl gapmer, 8-nucleotide deoxy gap, phosphorothioate backbone, targeted to human RNase H2]”, the “% Inhib” value (human RNase H2 [1]) was 6.1%, the “% inhibition” value (human RNase H2 [2]) was 7% and the “% of control” value (human RNase H2 [2]) was 93%.

For “CCCGCTCGCTCTCCAATAGG (all C 5-methyl, all phosphorothioate, sugars by position not given here; further chemistry not fully specified) [ISIS 21949, 2′-O-methoxyethyl gapmer, 8-nucleotide deoxy gap, phosphorothioate backbone, targeted to human RNase H2]”, the “% inhibition” value (human RNase H2 [2]) was 82%, the “% of control” value (human RNase H2 [2]) was 18% and the “inhibition of human RNase H2 expression” value (human RNase H2 [2]) was “at least 50%”.

For CCAGUUUGUCCGGUUCAGCUG [Si 21957], the “% Inhib” value (human RNase H2 [1]) was 42.4%.

For “CACAGGCGAACTCAGGCGAC (all C 5-methyl, all phosphorothioate, sugars by position not given here; further chemistry not fully specified) [ISIS 21947, 2′-O-methoxyethyl gapmer, 8-nucleotide deoxy gap, phosphorothioate backbone, targeted to human RNase H2]”, the “% inhibition” value (human RNase H2 [2]) was 63%, the “% of control” value (human RNase H2 [2]) was 37% and the “inhibition of human RNase H2 expression” value (human RNase H2 [2]) was “at least 50%”.

“GGTAGAGGGCATCTGCTTTG (eG*eG*eT*eA*eG*eA*dG*dG*dG*d[5mC]*dA*dT*d[5mC]*dT*eG*e[5mC]*eT*eT*eT*eG) [ISIS 21953]” was tested, and the “% inhibition” value (human RNase H2 [2]) was 59%, the “% of control” value (human RNase H2 [2]) was 41% and the “inhibition of human RNase H2 expression” value (human RNase H2 [2]) was “at least 50%”.
